Laboratory results published in US20240398836A1, “EPOXY STEROIDS” (priority 2021, published 2024).

How the values were obtained:
Format in all cases: cell-based
[1] = tested on: 7-CCA cells; test: Apoptosis induction in polycytostatics-resistant 7-CCA cells vs BJAB; conditions: doxorubicin-resistant BJAB, caspase-3 underexpression
Experimental: 7-CCA cells are lymphoma cells (BJAB cells) that have been made resistent against doxorubin, and have a caspase-3 underexpression as a resistence mechanism. They have co-resistences for the following cytostatics: • vincristine, vinblastine, vindesine, vinorelbin, taxol • cytarabin, fudarabin, cladribin, clofarabin, • daunorubicin, doxorubicin, idarubicin, epirubicin • cisplatin, oxaliplatin
The experiments were performed in triplicate. The error bars show the standard deviations of the measured values of three independent experiments. The steroid WIL 071 overcomes steroid resistence in lymphoma cells (7-CCA cells).

[2] = tested on: NaKu cells; test: Apoptosis induction in steroid- and polycytostatics-resistant NaKu cells vs Nalm-6; conditions: steroid- and polycytostatics-resistant leukemia cells (ALL)
Experimental: The experiments were performed in triplicate. The error bars show the standard deviations of the measured values of three independent experiments.
The steroid WIL 071 overcomes steroid resistence in leukemia cells (NaKu cells). Further, the steroid-resistent leukemia cells (NaKu cells) have co-resistencies for the following cytostatics: • prednisolone, methylprednisolone, dexamethasone, • doxorubicin, daunorubicin, idarubicin, epirubicin • cytarabine, cladribine • etoposide • cyclophosphamide, ifosfamide • vindesine • cisplatin, carboplatin, oxaliplatin

[3] = tested on: prednisolone-resistant leukemia cells; test: Overcoming of prednisolone resistance; conditions: 72 h
Experimental: (§1) The cells were incubated in 6-well plates with 1.0·10^5 cells/mL in two milliliters of medium with the respective steroid derivative in different concentrations. The included solvent control (DMSO) served as a control, which was subtracted from all the other measured values, in order not to take into account the spontaneous apoptosis of the cells that takes place independently of the concentration of active ingredient. After 72 h, a modified cell cycle analysis was performed, in order to quantify the proportion of apoptotic cells by flow cytometry. For each concentration of the steroid, the respective mean values f standard deviations, n=3 (*: p<0.05 vs. DMSO, t test) were determined. Using the curve of the dose-effect relationship (steroid concentration−apoptosis induction) formed from these measured values, the steroid concentration at which apoptosis was triggered in 50% of the tested leukemia cells was read.
Prednisolone resistance is said to be overcome if the induction of apoptosis in prednisolone-resistant leukemia cells is as high as it is in normal leukemia cells.

[4] = tested on: Nalm-6 cells; test: Selectivity: apoptosis (DNA fragmentation, flow cytometry) in leukemia cells
Experimental: WIL 071 acts selectively in malignant cells that are proliferating.
The DNA fragmentation was measured by flow cytometry, see FIG. 7. The experiments were performed in triplicate. The error bars show the standard deviations of the measured values of three independent experiments.

[5] = tested on: Nalm-6 cells; test: Half-maximal apoptosis induction (AC50) in Nalm-6 cells; conditions: Homo sapiens; Nalm-6, 72 h, flow cytometry; read-out: Biological effect: half-maximal apoptosis induction (AC50)
Experimental: Apoptosis Induction in Nalm-6 Cells after Treatment with WIL-071 or Different Steroid Derivatives.
as §1

CC(C)CCC[C@@H](C)[C@H]1CC[C@H]2[C@@H]3[C@H]4OC[C@@]5(CC[C@H](O)C[C@]5(O)C4=O)[C@H]3CC[C@]12C [WIL-071, 3β,5α-dihydroxy-7β,19-epoxy-cholestan-6-one]
apoptosis induction in resistant 7-CCA cells compared with BJAB [1]: induces as much apoptosis as in the non-resistent lymphoma cells
apoptosis induction in resistant NaKu cells compared with Nalm-6 [2]: induces as much apoptosis as in the non-resistent leukemia cells (Nalm-6)
EC50 [3]: 16 µM
apoptosis induction (DNA fragmentation) [4]: apoptosis is induced in a concentration-dependent way
AC50 [5]: 17.2 µM
